Laboratory results from ChEMBL document CHEMBL1201862, “PubChem BioAssay data set” (2004).
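In this assay, cells in 96-well plates receive the compound at five concentrations for 48 hours. Endpoints are linearly interpolated between the surrounding concentrations. GI50 = concentration required for 50% inhibition of growth.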 Calls of active or inactive are those of the source. Cut-off read from the data, not from the text of the source: active = GI50 up to about 1.1 µM and inactive = higher.

Columns and labels:
Assay in all cases: DTP human tumour cell line panel, 48 h
[1] = system: A498
[2] = system: CCRF-CEM
[3] = system: COLO 205
[4] = system: EKVX
[5] = system: HCT-15
[6] = system: K562
[7] = system: MOLT-4
[8] = system: NCI-H226
[9] = system: NCI-H23
[10] = system: NCI-H522
[11] = system: OVCAR-3
[12] = system: SF-268
[13] = system: SK-MEL-28
[14] = system: SK-MEL-2
[15] = system: SK-OV-3
[16] = system: TK-10
[17] = system: U-251
[18] = system: UACC-62
[19] = system: UO-31
[20] = system: SK-MEL-5

SMILES | GI50 [1] | GI50 [2] | GI50 [3] | GI50 [4] | GI50 [5] [µM] | GI50 [6] | GI50 [7] | GI50 [8] | GI50 [9] | GI50 [10] | GI50 [11] | GI50 [12] | GI50 [13] | GI50 [14] | GI50 [15] | GI50 [16] | GI50 [17] | GI50 [18] | GI50 [19] | GI50 [20]
CC1=NC(=N)N=C(C)C1/N=N/c1ccc2[nH]c(C)nc2c1 (stereo unspecified) | > 100 µM (inactive) | > 100 µM (inactive) | > 100 µM (inactive) | > 100 µM (inactive) | > 100 | > 100 µM (inactive) | > 100 µM (inactive) | > 100 µM (inactive) | > 100 µM (inactive) | > 100 µM (inactive) | > 100 µM (inactive) | > 100 µM (inactive) | > 100 µM (inactive) | > 100 µM (inactive) | > 100 µM (inactive) | > 100 µM (inactive) | > 100 µM (inactive) | > 100 µM (inactive) |  | 
Oc1nnc2c(-c3ccccc3)n[nH]c2n1 | > 100 µM (inactive) | > 100 µM (inactive) | > 100 µM (inactive) | 16.4 µM (inactive) | > 100 | > 100 µM (inactive) | > 100 µM (inactive) | > 100 µM (inactive) | > 100 µM (inactive) | > 100 µM (inactive) | > 100 µM (inactive) | > 100 µM (inactive) | > 100 µM (inactive) | > 100 µM (inactive) |  | > 100 µM (inactive) | > 100 µM (inactive) | > 100 µM (inactive) | > 100 µM (inactive) | 
OC(c1ccccc1Br)(c1ccccc1Br)C(F)(F)F | 30.1 µM (inactive) |  | 18.2 µM (inactive) | 33.9 µM (inactive) | 30.4 |  | 14.9 µM (inactive) | 10.9 µM (inactive) | 27.9 µM (inactive) | 11.6 µM (inactive) | 26.9 µM (inactive) | 20.9 µM (inactive) | 27.7 µM (inactive) | 18.5 µM (inactive) | 36.5 µM (inactive) | 52.1 µM (inactive) | 18.6 µM (inactive) | 26.8 µM (inactive) | 26.7 µM (inactive) | 
O=[N+]([O-])C(=C(NCc1ccccc1)NCc1ccccc1)C(Cl)=C(Cl)Cl | 61.7 µM (inactive) | 23.1 µM (inactive) | 19.4 µM (inactive) | 51.3 µM (inactive) | 23.3 | 22.3 µM (inactive) | 23.1 µM (inactive) | 39.5 µM (inactive) | 38.4 µM (inactive) | 37 µM (inactive) | 21.6 µM (inactive) | 20.8 µM (inactive) | 61.2 µM (inactive) |  | 51.1 µM (inactive) | 35.9 µM (inactive) |  | 30.9 µM (inactive) | 25.3 µM (inactive) | 20.2 µM (inactive)
CCC(CCCCC1CC[C@H]2CC(=O)C[C@@H]12)OC (stereo partly specified) | > 100 µM (inactive) | 79.8 µM (inactive) | > 100 µM (inactive) |  | > 100 | 26.5 µM (inactive) | > 100 µM (inactive) | > 100 µM (inactive) | > 100 µM (inactive) | > 100 µM (inactive) | > 100 µM (inactive) | > 100 µM (inactive) | > 100 µM (inactive) | > 100 µM (inactive) | > 100 µM (inactive) | > 100 µM (inactive) | > 100 µM (inactive) |  |  | 79.8 µM (inactive)
Cc1c(C(=O)/C=C/c2ccc3c(c2)OCO3)[n+]([O-])c2ccccc2[n+]1[O-] | 20.4 µM (inactive) | 32.9 µM (inactive) | 27.7 µM (inactive) | 24.7 µM (inactive) |  | 33 µM (inactive) | 22.9 µM (inactive) | 16 µM (inactive) | 19.5 µM (inactive) | 15.3 µM (inactive) | 24.2 µM (inactive) | 52.6 µM (inactive) | 61 µM (inactive) |  | 21.3 µM (inactive) | 36.1 µM (inactive) | 30.3 µM (inactive) | 27.2 µM (inactive) | 28 µM (inactive) | 
C=C1C(=O)O[C@@H]2/C=C(/C)[C@@H](OC(C)=O)C[C@@H](O)/C(C)=C\[C@@H](OC(=O)[C@]3(C)O[C@@H]3C)[C@@H]12 | 18.1 µM (inactive) | 2.38 µM (inactive) | 6.89 µM (inactive) | 11 µM (inactive) | 12.9 | 3.34 µM (inactive) | 3.91 µM (inactive) | 40.4 µM (inactive) | 17.3 µM (inactive) | 1.28 µM (inactive) | 11.6 µM (inactive) | 18.9 µM (inactive) | 10.9 µM (inactive) | 17.2 µM (inactive) | 45.8 µM (inactive) | 15.6 µM (inactive) | 17.5 µM (inactive) | 16.1 µM (inactive) |  | 11.4 µM (inactive)
CN(C)Cc1cc(C(=O)/C=C/c2ccc(Cl)cc2Cl)cc(CN(C)C)c1O | 2.4 µM (inactive) | 2.16 µM (inactive) | 1.44 µM (inactive) | 6.18 µM (inactive) | 3.17 | 1.48 µM (inactive) | 1.88 µM (inactive) | 8.57 µM (inactive) | 6.9 µM (inactive) | 2.56 µM (inactive) | 2.99 µM (inactive) | 3.88 µM (inactive) | 6.25 µM (inactive) |  |  | 11.5 µM (inactive) | 3.52 µM (inactive) |  | 2.07 µM (inactive) | 1.96 µM (inactive)
